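Exposure lasted 48 hours, with cells grown in 96-well plates and compounds tested at five concentrations. GI50 is the concentration that inhibits growth by half. TGI: total growth inhibition.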
What was measured:
Assay in all cases: DTP human tumour cell line panel, 48 h
[1] = system: HCC-2998 colon
[2] = system: SK-MEL-2 melanoma
[3] = system: SF-268 CNS
[4] = system: 786-0 renal
[5] = system: A549 NSCLC
[6] = system: SW-620 colon
[7] = system: HS 578T breast
[8] = system: T-47D breast
[9] = system: SK-MEL-28 melanoma
[10] = system: EKVX NSCLC
[11] = system: LOX IMVI melanoma
[12] = system: CAKI-1 renal
[13] = system: UACC-62 melanoma
[14] = system: K-562 leukemia
[15] = system: NCI-H522 lung
[16] = system: U251 CNS
[17] = system: SN12C renal
[18] = system: OVCAR-4 ovarian
[19] = system: HCT-15 colon
[20] = system: MDA-MB-468 breast
[21] = system: PC-3 prostate
[22] = system: HT29 colon
[23] = system: MDA-MB-435
[24] = system: OVCAR-8 ovarian
[25] = system: COLO 205 colon
[26] = system: NCI/ADR-RES ovarian
[27] = system: A498 renal
[28] = system: RXF 393 renal
[29] = system: NCI-H460 lung
[30] = system: UO-31 renal
[31] = system: MDA-MB-231 breast
[32] = system: MALME-3M melanoma
[33] = system: SF-539 CNS
[34] = system: HOP-62 NSCLC
[35] = system: NCI-H23 lung
[36] = system: MCF7 breast
[37] = system: NCI-H226 lung
[38] = system: KM12 colon
[39] = system: OVCAR-3 ovarian
[40] = system: ACHN renal
[41] = system: DU-145 prostate
[42] = system: OVCAR-5 ovarian
[43] = system: UACC-257 melanoma
[44] = system: SK-OV-3 ovarian
[45] = system: HL-60(TB) leukemia
[46] = system: TK-10 renal
[47] = system: MOLT-4 leukemia
[48] = system: SF-295 CNS
[49] = system: IGROV1 ovarian
[50] = system: SNB-19 CNS
[51] = system: BT-549 breast
[52] = system: SK-MEL-5 melanoma
[53] = system: SNB-75 CNS
[54] = system: HOP-92 NSCLC

COc1ccc(C(=O)/C=C/c2ccc(Cl)c(C(F)(F)F)c2)cc1S(N)(=O)=O
GI50 [1]: 1590 nM
TGI [1]: 2930 nM
GI50 [2]: 6780 nM
TGI [2]: 20400 nM
GI50 [3]: 10000 nM
TGI [3]: 32100 nM
GI50 [4]: 419 nM
TGI [4]: 1800 nM
GI50 [5]: 2340 nM
TGI [5]: 10300 nM
GI50 [6]: 1230 nM
TGI [6]: 2690 nM
GI50 [7]: 6570 nM
TGI [7]: 38800 nM
GI50 [8]: 2370 nM
TGI [8]: 9360 nM
GI50 [9]: 1740 nM
TGI [9]: 3190 nM
GI50 [10]: 2150 nM
TGI [10]: 5750 nM
GI50 [11]: 313 nM
TGI [11]: 1100 nM
GI50 [12]: 1570 nM
TGI [12]: 4160 nM
GI50 [13]: 1520 nM
TGI [13]: 3410 nM
GI50 [14]: 1080 nM
TGI [14]: > 100000 nM
GI50 [15]: 1540 nM
TGI [15]: 3150 nM
GI50 [16]: 1420 nM
TGI [16]: 3080 nM
GI50 [17]: 1450 nM
TGI [17]: 2940 nM
GI50 [18]: 2800 nM
TGI [18]: 12500 nM
GI50 [19]: 893 nM
TGI [19]: 2340 nM
GI50 [20]: 1340 nM
TGI [20]: 2690 nM
GI50 [21]: 1750 nM
TGI [21]: 4520 nM
GI50 [22]: 1520 nM
TGI [22]: 3060 nM
GI50 [23]: 1750 nM
TGI [23]: 4280 nM
GI50 [24]: 1740 nM
TGI [24]: 4510 nM
GI50 [25]: 1960 nM
TGI [25]: 4080 nM
GI50 [26]: 1050 nM
TGI [26]: 3330 nM
GI50 [27]: 12900 nM
TGI [27]: 25600 nM
GI50 [28]: 1640 nM
TGI [28]: 3100 nM
GI50 [29]: 2400 nM
TGI [29]: 6620 nM
GI50 [30]: 1400 nM
TGI [30]: 2740 nM
GI50 [31]: 1690 nM
TGI [31]: 3370 nM
GI50 [32]: 1880 nM
TGI [32]: 4010 nM
GI50 [33]: 1610 nM
TGI [33]: 3000 nM
GI50 [34]: 1930 nM
TGI [34]: 4130 nM
GI50 [35]: 1620 nM
TGI [35]: 3040 nM
GI50 [36]: 333 nM
TGI [36]: 1390 nM
GI50 [37]: 2220 nM
TGI [37]: 5600 nM
GI50 [38]: 1760 nM
TGI [38]: 5650 nM
GI50 [39]: 1420 nM
TGI [39]: 2870 nM
GI50 [40]: 1470 nM
TGI [40]: 2840 nM
GI50 [41]: 4990 nM
TGI [41]: 17000 nM
GI50 [42]: 3270 nM
TGI [42]: 9350 nM
GI50 [43]: 2100 nM
TGI [43]: 6200 nM
GI50 [44]: 7900 nM
TGI [44]: 23800 nM
GI50 [45]: 1720 nM
TGI [45]: 5490 nM
GI50 [46]: 2590 nM
TGI [46]: 7230 nM
GI50 [47]: 2570 nM
TGI [47]: 8330 nM
GI50 [48]: 1640 nM
TGI [48]: 3320 nM
GI50 [49]: 1870 nM
TGI [49]: 4010 nM
GI50 [50]: 1660 nM
TGI [50]: 3370 nM
GI50 [51]: 1710 nM
TGI [51]: 3180 nM
GI50 [52]: 3630 nM
TGI [52]: 13300 nM
GI50 [53]: 1620 nM
TGI [53]: 9690 nM
GI50 [54]: 2010 nM
TGI [54]: 5810 nM
